These results are taken from patent US10807982B2, “Bromodomain inhibitors” (CELGENE QUANTICEL RESEARCH, INC., priority 2015, dated 2020).

Experiment [1] concerns NCI-H460, human non-small cell lung cancer cells. The experiment is described as follows: Cell-MTS cellular proliferation assay, NCI-H460. The following applies: Homo sapiens, 168 hr incubation. The class given is cell-based. Summed up: (§1)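 Cells seeded to reach ~90% confluence at 7 days (Raji 15,000, HL-60 5,000, NCI-H460 3,000 per well); 11-point compound dilution, 100 µM to 2.0 nM final, added 24 h after plating. Exposure 168 hr at 37 °C, 5% CO2; MTS read at OD490. IC50 from background-subtracted OD490 normalized to DMSO controls.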
(In general: Tetrazolium assays rely on reduction of a dye to a coloured formazan, in cell work by metabolically active cells.)

Another experiment addresses BRD4(BD1) (Homo sapiens (Human), UniProt O60885). Kind of experiment: In vitro enzyme inhibition assay (BRD4 AlphaScreen, H4-tetraacetyl peptide). The class given is binding. The following applies: BRD4(BD1) 2 nM, peptide 15 nM. Summed up: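 His-tagged BRD4(BD1), 2 nM, with 15 nM biotinylated H4K5/8/12/16(Ac) peptide in HEPES pH 7.3 buffer, 0.4% DMSO, 20 min RT with compound. Streptavidin donor and Ni-chelate acceptor beads (5 μg/mL) then equilibrated 2 h. AlphaScreen signal; IC50 by four-parameter fit.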
In general terms: In Alpha technology, singlet oxygen from a donor bead excites a nearby acceptor bead.

The subject of experiment [2] is HL-60, human proleukemia cells. The experiment is described as follows: Cell-MTS cellular proliferation assay, HL-60. The class given is cell-based. The following applies: Homo sapiens, HL-60 cells, 168 hr incubation. Summed up: as §1
In experiment [3] the test system is Raji, human Burkitts lymphoma cells. Kind of experiment: Cell-MTS cellular proliferation assay, Raji. The class given is cell-based. The following applies: Homo sapiens, 168 hr incubation. Summed up:
as §1

As a reminder, the IC50 is the concentration that gives 50% inhibition. Read a low IC50 as greater potency in that assay. Turning to `Cc1cc(-c2cc(NS(C)(=O)=O)cc3cc(C4CC4)oc23)cn(C)c1=O` [Example 80, N-[2-cyclopropyl-7-(1,5-dimethyl-6-oxopyridin-3-yl)-1-benzofuran-5-yl]methanesulfonamide], the IC50 in experiment [1] is 500 to 5000 nM; on BRD4(BD1), ≤ 500 nM; in experiment [2] it was ≤ 500 nM; in experiment [3] it was ≤ 500 nM.

With `CCS(=O)(=O)Nc1cc(-c2cc(C)c(=O)n(C)c2)cc2c1ncn2Cc1cccc(F)c1` [Example 33, N-[6-(1,5-dimethyl-6-oxopyridin-3-yl)-1-[(3-fluorophenyl)methyl]benzimidazol-4-yl]ethanesulfonamide], the IC50 in experiment [1] was 500 to 5000 nM; against BRD4(BD1) it was ≤ 500 nM; in experiment [2], ≤ 500 nM; in experiment [3], ≤ 500 nM.

For `CCS(=O)(=O)Nc1cc(-c2cc(C)c(=O)n(C)c2)cc2c1nnn2Cc1ccccc1` [Example 27, N-[1-benzyl-6-(1,5-dimethyl-6-oxopyridin-3-yl)benzotriazol-4-yl]ethanesulfonamide], the IC50 is 500 to 5000 nM in experiment [1], ≤ 500 nM against BRD4(BD1), ≤ 500 nM in experiment [2] and ≤ 500 nM in experiment [3].

For `COc1cc(-c2cc3c(S(C)(=O)=O)nn(C)c3cc2OCC2CC2)cn(C)c1=O` [Example 59, 5-[6-(cyclopropylmethoxy)-1-methyl-3-methylsulfonylindazol-5-yl]-3-methoxy-1-methylpyridin-2-one], the IC50 in experiment [1] was > 5000 nM; against BRD4(BD1), ≤ 500 nM; in experiment [2], ≤ 500 nM; in experiment [3] it was ≤ 500 nM.

In the case of `Cc1cc(-c2cc(NS(C)(=O)=O)c3ccn(Cc4ccccc4)c3c2)cn(C)c1=O` [Example 18, N-[1-benzyl-6-(1,5-dimethyl-6-oxopyridin-3-yl)indol-4-yl]methanesulfonamide], the IC50 in experiment [1] was 500 to 5000 nM; against BRD4(BD1), ≤ 500 nM; in experiment [2], ≤ 500 nM; in experiment [3] it was ≤ 500 nM.

On to `CN1Cc2cc(OCC3CC3)c(-c3cn(C)c(=O)c4ccccc34)cc2S1(=O)=O` [Example 6, 4-[5-(cyclopropyhnethoxy)-2-methyl-1,1-dioxo-3H-1,2-benzothiazol-6-yl]-2-methylisoquinolin-1-one], for which the IC50 is 500 to 5000 nM in experiment [1], ≤ 500 nM on BRD4(BD1), ≤ 500 nM in experiment [2] and 500 to 5000 nM in experiment [3].

Turning to `Cc1cc(-c2cc3c(cc2OCC(F)(F)F)CN(C)S3(=O)=O)cn(C)c1=O` [Example 9, 1,3-dimethyl-5-[2-methyl-1,1-dioxo-5-(2,2,2-trifluoroethoxy)-3H-1,2-benzothiazol-6-yl]pyridine-2-one], the IC50 was > 5000 nM in experiment [1], ≤ 500 nM on BRD4(BD1), ≤ 500 nM in experiment [2] and 500 to 5000 nM in experiment [3].

With `Cn1cc(-c2cc(NS(C)(=O)=O)c3ccn(Cc4ccccc4)c3c2)c2ccccc2c1=O` [Example 17, N-[1-benzyl-6-(2-methyl-1-oxoisoquinolin-4-yl)indol-4-yl]methanesulfonamide], the IC50 is 500 to 5000 nM in experiment [1], ≤ 500 nM against BRD4(BD1), ≤ 500 nM in experiment [2] and ≤ 500 nM in experiment [3].

Regarding `CCOc1nc2c(CS(C)(=O)=O)cc(-c3cc(C)c(=O)n(C)c3)cc2n1CC1CC1` [Example 97, 5-[3-(cyclopropylmethyl)-2-ethoxy-7-(methylsulfonylmethyl)benzimidazol-5-yl]-1,3-dimethylpyridin-2-one], the IC50 is > 5000 nM in experiment [1], ≤ 500 nM against BRD4(BD1), ≤ 500 nM in experiment [2] and ≤ 500 nM in experiment [3].

Turning to `CCS(=O)(=O)Nc1cc(-c2cc(C)c(=O)n(C)c2)cc2c1cnn2Cc1ccc(F)cc1` [Example 43, N-[6-(1,5-dimethyl-6-oxopyridin-3-yl)-1-[(4-fluorophenyl)methyl]indazol-4-yl]ethanesulfonamide], the IC50 (in experiment [1]; at BRD4(BD1); in experiment [2]; in experiment [3]) was ≤ 500 nM in each case.

With `Cc1cc(-c2cc3c(cc2Oc2ccc(F)cc2F)CN(C)S3(=O)=O)cn(C)c1=O` [Example 11, 5-[5-(2,4-difluorophenoxy)-2-methyl-1,1-dioxo-3H-1,2-benzothiazol-6-yl]-1,3-dimethylpyridin-2-one], the IC50 in experiment [1] is > 5000 nM; against BRD4(BD1) it was ≤ 500 nM; in experiment [2] it was ≤ 500 nM; in experiment [3], ≤ 500 nM.

Consider `COc1cc2c(cc1-c1cc(C)c(=O)n(C)c1)S(=O)(=O)N(C)C2` [Example 3, 5-(5-methoxy-2-methyl-1,1-dioxo-3H-1,2-benzothiazol-6-yl)-1,3-dimethylpyridin-2-one], for which the IC50 in experiment [1] was > 5000 nM; at BRD4(BD1), ≤ 500 nM; in experiment [2] it was 500 to 5000 nM; in experiment [3], > 5000 nM.

With `Cc1cc(-c2cc(S(C)(=O)=O)c3nc(C)n(Cc4ccccc4)c3c2)cn(C)c1=O` [Example 67, 5-(3-benzyl-2-methyl-7-methylsulfonylbenzimidazol-5-yl)-1,3-dimethylpyridin-2-one], the IC50 in experiment [1] is > 5000 nM; at BRD4(BD1) it was ≤ 500 nM; in experiment [2], ≤ 500 nM; in experiment [3], ≤ 500 nM.

As to `Cc1cc(-c2cc(S(C)(=O)=O)ccc2OCC2CC2)c2n(c1=O)CC(C)(C)C2` [Example 87, 8-[2-(cyclopropylmethoxy)-5-methylsulfonylphenyl]-2,2,6-trimethyl-1,3-dihydroindolizin-5-one], the IC50 in experiment [1] was > 5000 nM; against BRD4(BD1), ≤ 500 nM; in experiment [2] it was ≤ 500 nM; in experiment [3], ≤ 500 nM.

For `Cc1cc(-c2cc(CS(C)(=O)=O)c3nc(C)n(CC4CC4)c3c2)cn(C)c1=O` [Example 96, 5-[3-(cyclopropylmethyl)-2-methyl-7-(methylsulfonylmethyl)benzimidazol-5-yl]-1,3-dimethylpyridin-2-one], the IC50 in experiment [1] was > 5000 nM; at BRD4(BD1) it was ≤ 500 nM; in experiment [2], ≤ 500 nM; in experiment [3], ≤ 500 nM.

Turning to `CCS(=O)(=O)Cc1cc(-c2cc(OC)c(=O)n(C)c2)c2oc(C3CC3)nc2c1` [Example 100, 5-[2-cyclopropyl-5-(ethylsulfonylmethyl)-1,3-benzoxazol-7-yl]-3-methoxy-1-methylpyridin-2-one], the IC50 in experiment [1] is > 5000 nM; against BRD4(BD1), ≤ 500 nM; in experiment [2], ≤ 500 nM; in experiment [3], ≤ 500 nM.

For the compound `COC[C@@H](C)n1c(C)nc2c(NS(C)(=O)=O)cc(-c3cc(C)c(=O)n(C)c3)cc21` [Example 46, N-[6-(1,5-dimethyl-6-oxopyridin-3-yl)-1-[(2R)-1-methoxypropan-2-yl]-2-methylbenzimidazol-4-yl]methanesulfonamide], the IC50 was > 5000 nM in experiment [1], ≤ 500 nM on BRD4(BD1), ≤ 500 nM in experiment [2] and ≤ 500 nM in experiment [3].

With `CCN1Cc2cc(OCC3CC3)c(-c3cc(C)c(=O)n(C)c3)cc2S1(=O)=O` [Example 8, 5-[5-(cyclopropylmethoxy)-2-ethyl-1,1-dioxo-3H-1,2-benzothiazol-6-yl]-1,3-dimethylpyridin-2-one], the IC50 in experiment [1] was 500 to 5000 nM; at BRD4(BD1), ≤ 500 nM; in experiment [2], ≤ 500 nM; in experiment [3], 500 to 5000 nM.

For the compound `CCN1Cc2cc(OCC3CC3)c(-c3cn(C)c(=O)c4ccccc34)cc2S1(=O)=O` [Example 7, 4-[5-(cyclopropylmethoxy)-2-ethyl-1,1-dioxo-3H-1,2-benzothiazol-6-yl]-2-methylisoquinolin-1-one], the IC50 in experiment [1] is 500 to 5000 nM; at BRD4(BD1), ≤ 500 nM; in experiment [2], ≤ 500 nM; in experiment [3] it was ≤ 500 nM.

For the compound `CCS(=O)(=O)Nc1cc(-c2cc(C)c(=O)n(C)c2)c2oc(C3CC3)nc2c1` [Example 47, N-[2-cyclopropyl-7-(1,5-dimethyl-6-oxopyridin-3-yl)-1,3-benzoxazol-5-yl]ethanesulfonamide], the IC50 in experiment [1] was > 5000 nM; at BRD4(BD1), ≤ 500 nM; in experiment [2], ≤ 500 nM; in experiment [3] it was ≤ 500 nM.

Take `COc1cc(-c2cc3c(S(C)(=O)=O)cccc3n2CCC2CC2)cn(C)c1=O` [Example 91, 5-[1-(2-cyclopropylethyl)-4-methylsulfonylindol-2-yl]-3-methoxy-1-methylpyridin-2-one]: the IC50 in experiment [1] was > 5000 nM; on BRD4(BD1) it was ≤ 500 nM; in experiment [2], ≤ 500 nM; in experiment [3] it was ≤ 500 nM.

For `Cc1cc(-c2cc(NS(C)(=O)=O)c3nc(C(F)(F)F)n(CC4CC4)c3c2)cn(C)c1=O` [Example 92, N-[1-(cyclopropylmethyl)-6-(1,5-dimethyl-6-oxopyridin-3-yl)-2-(trifluoromethyl)benzimidazol-4-yl]methanesulfonamide], the IC50 in experiment [1] is 500 to 5000 nM; on BRD4(BD1) it was ≤ 500 nM; in experiment [2], ≤ 500 nM; in experiment [3] it was ≤ 500 nM.

As for `Cc1cc(-c2cc3c(cc2OCC2CC2)CCN3S(C)(=O)=O)cn(C)c1=O` [Example 15, 5-[5-(cyclopropylmethoxy)-1-methylsulfonyl-2,3-dihydroindol-6-yl]-1,3-dimethylpyridin-2-one], the IC50 in experiment [1] was > 5000 nM; at BRD4(BD1), ≤ 500 nM; in experiment [2], ≤ 500 nM; in experiment [3] it was ≤ 500 nM.

For the compound `CCS(=O)(=O)c1cc(-c2cc(OC)c(=O)n(C)c2)cc2c1nc(C)n2Cc1ccccc1` [Example 68, 5-(3-benzyl-7-ethylsulfonyl-2-methylbenzimidazol-5-yl)-3-methoxy-1-methylpyridin-2-one], the IC50 was > 5000 nM in experiment [1], ≤ 500 nM against BRD4(BD1), 500 to 5000 nM in experiment [2] and 500 to 5000 nM in experiment [3].
